Like-named read-outs stand apart in the source and are kept apart here.
Legend:
[1] = test system: human iPSC-derived 3D BrainSpheres; test: BrainSphere MEA assay (HD-MEA, 13-day exposure, concentration-response); format: cell-based; details: for EC (benchmark response 1.349 SD): 312 h; for AC50: concentration at 50% maximal activity, Supplement 3 prints it also for curves with hit call 0; on hitc Mean.Spheroid.Burst.Duration: key: 1 (active); 0 (inactive); on hitc Mean.Spheroid.Burst.ISI: key: 1 (active); 0 (inactive); on hitc Mean.Spheroid.Burst.Peak.Firing.Rate: key: 1 (active); 0 (inactive); on hitc Mean.Spheroid.Firing.Rate: key: 1 (active); 0 (inactive); on hitc Mean.Spheroid.IBI: key: 1 (active); 0 (inactive); on hitc Mean.Spheroid.Nonburst.ISI: key: 1 (active); 0 (inactive); on hitc Mean.Spheroid.Spikes.per.Burst.per.Electrode: key: 1 (active); 0 (inactive); on hitc Mean.Spheroid.Spikes.per.Burst: key: 1 (active); 0 (inactive); on hitc Spheroid.Burst.Frequency: key: 1 (active); 0 (inactive); on hitc Spheroid.Spike.Amplitude.90th.Percentile: key: 1 (active); 0 (inactive)
Description: A volume of 1 ml of Tergazyme (1% solution in deionized water) was added to each well of the MaxTwo 6-Well Plate (MaxWell Biosystems) and incubated overnight under constant gyratory shaking (88 RPM) at 37 °C and 5% CO2. The next day, Tergazyme solution was removed, and plates were washed with distilled water and ethanol. After remaining ethanol was evaporated, wells were washed with PBS. Then, 200 µl of Poly-D-Lysine (Gibco, A38904 - 01) was added on top of the electrodes and incubated at 37 °C and 5% CO2 for 3 h (humidified). Poly-D-Lysine was then removed, and wells were coated with 100 µl of 0.1 mg/ml laminin coating solution (Sigma-Aldrich, L2020 - 1 mg) and incubated for 2 h at 37 ℃ and 5% CO2 (humidified). The laminin was removed after incubation. Using a 1 ml micropipette, 1 ml of medium containing BrainSpheres (7 weeks differentiated), approximately 25 BrainSpheres per ml, was plated on top of the HD-MEA chip (Fig. 1A). Afterwards, the plate was placed in an incubator at 37 °C and 5% CO2 and moved in circles to accumulate the BrainSpheres on top of the electrode area (Fig. 1A). The plate was kept in an incubator (humidified) for 2 days to allow attachment of the BrainSpheres with no gyratory shaking of the plates.
The MaxTwo high-density microelectrode array system (MaxWell Biosystems AG, Zurich, Switzerland) was used to measure neural activity with MaxTwo 6-well plates, where every well includes an integrated chip with 26,400 platinum electrodes arranged in an area of 3.85 × 2.10 mm^2 ([…]) (Muller et al. [2015]). The data were recorded and analyzed with the MaxLab Live Software (version 22.2.22). First, the MaxLab live ActivityScan Assay was used to identify the activity and positioning of the BrainSpheres on the array by scanning all the 26,400 electrodes in 29 configurations in a well (Assay Parameters: Configuration = Full; Recording time per configuration = 60 s (s)). The settings gain = 512, high-pass-filter (HPF): ~ 1 Hz and spike threshold = 5 X root-mean square (RMS) noise were used for all HD-MEA recordings. Circular regions of interest (ROI) were manually selected in the Activity Map where neuronal activity was apparent by an increased activity (Fig. 2). Over the course of the 13-day experiment, the same selected regions and electrodes were measured using the MaxLab Live Network Assay (600 s recording time).
A custom analysis framework was used to extract the MaxLab Live neuronal metrics for the individual BrainSpheres. For this, electrodes comprising a single ROI (i.e., individual BrainSphere; Fig. 2D) were grouped using distance-based clustering (fcluster method of Scipy library, Python 3.7) and neural metrics were calculated for the clustered electrodes for every ROI separately. Figure 2E presents a raster plot illustrating the activity associated with individual Regions of Interest (ROIs). […] Ten MaxLab Live neural metrics (endpoints) were evaluated from the MaxLab live ActivityScan and Network Assay in this study. See Table 3 for the endpoint definitions, tuned parameters, and activity type (general versus network connectivity).
The BrainSphere MEA assay measured changes in neural activity during a 13-day chemical exposure. The first recording day of the concentration–response screening protocol (day of exposure (DOE) 0) occurred after 7 weeks of BrainSphere differentiation, 48 h after plating on HD-MEA plates (Fig. 1B). The study included at least three biological replicates (one well per plate) from separate experiments (e.g., three different plates on three different days) and each well included multiple BrainSpheres which were considered technical replicates.

2D rat cortical cultures [2] = details: cited from earlier work; for AC50: rNFA mc5
2D rat cortical cultures [3] = details: rNFA mc5 hit call; cytotoxicity AlamarBlue; cited from earlier work
2D rat cortical cultures [4] = details: rNFA mc5 hit call; cytotoxicity LDH; cited from earlier work
[5] = AUC over 13-day exposure, tcplfit2
[6] = tcplfit2 BMD at benchmark response (1.349*SD of baseline controls)
[7] = tcplfit2 output ACC, activity cutoff in Supplemental Table 1
Wherever hitc CCTE Shafer MEA dev active electrodes number is given: key: 1 (active); 0 (inactive).
Wherever hitc CCTE Shafer MEA dev burst duration mean is given: key: 1 (active); 0 (inactive).
Wherever hitc CCTE Shafer MEA dev burst rate is given: key: 1 (active); 0 (inactive).
Wherever hitc CCTE Shafer MEA dev bursting electrodes number is given: key: 1 (active); 0 (inactive).
Wherever hitc CCTE Shafer MEA dev correlation coefficient mean is given: key: 1 (active); 0 (inactive).
Wherever hitc CCTE Shafer MEA dev firing rate mean is given: key: 1 (active); 0 (inactive).
Wherever hitc CCTE Shafer MEA dev inter network spike interval mean is given: key: 1 (active); 0 (inactive).
Wherever hitc CCTE Shafer MEA dev interburst interval mean is given: key: 1 (active); 0 (inactive).
Wherever hitc CCTE Shafer MEA dev mutual information norm is given: key: 1 (active); 0 (inactive).
Wherever hitc CCTE Shafer MEA dev network spike duration std is given: key: 1 (active); 0 (inactive).
Wherever hitc CCTE Shafer MEA dev network spike number is given: key: 1 (active); 0 (inactive).
Wherever hitc CCTE Shafer MEA dev network spike peak is given: key: 1 (active); 0 (inactive).
Wherever hitc CCTE Shafer MEA dev per burst interspike interval is given: key: 1 (active); 0 (inactive).
Wherever hitc CCTE Shafer MEA dev per burst spike percent is given: key: 1 (active); 0 (inactive).
Wherever hitc CCTE Shafer MEA dev per network spike spike number mean is given: key: 1 (active); 0 (inactive).
Wherever hitc CCTE Shafer MEA dev per network spike spike percent is given: key: 1 (active); 0 (inactive).
Wherever hitc CCTE Shafer MEA dev spike duration mean is given: key: 1 (active); 0 (inactive).

CC(C)(c1ccc(O)cc1)c1ccc(O)cc1 [Bisphenol A]
Difference of minimum potency between BrainSphere MEA assay and rNFA ([1]; 5th percentile of AC50 values by chemical, above 0.5 = more potent in the rNFA): ≤ 0.5 log10 µM
hitc Mean.Spheroid.Burst.Duration [1, 5]: 1
hitc Mean.Spheroid.Burst.ISI [1, 5]: 1
hitc Mean.Spheroid.Burst.Peak.Firing.Rate [1, 5]: 1
hitc Mean.Spheroid.Firing.Rate [1, 5]: 1
hitc Mean.Spheroid.IBI [1, 5]: 1
hitc Mean.Spheroid.Nonburst.ISI [1, 5]: 0
hitc Mean.Spheroid.Spikes.per.Burst [1, 5]: 1
hitc Mean.Spheroid.Spikes.per.Burst.per.Electrode [1, 5]: 1
hitc Spheroid.Burst.Frequency [1, 5]: 1
hitc Spheroid.Spike.Amplitude.90th.Percentile [1, 5]: 1
EC50 ([1]; Homo sapiens, 5th percentile across active AC50 values per chemical, read-out: Minimum potency): 29.1 µM
EC (benchmark response 1.349 SD) ([1]; Homo sapiens, tcplfit2 BMD at benchmark response (1.349*SD of baseline controls), read-out: BMD Mean.Spheroid.Burst.ISI): 27 µM
EC (benchmark response 1.349 SD) ([1]; Homo sapiens, tcplfit2 BMD at benchmark response (1.349*SD of baseline controls), read-out: BMD Mean.Spheroid.Nonburst.ISI): 50 µM
AC50 ([1]; Homo sapiens, read-out: ac50 Mean.Spheroid.Burst.Duration): 29.4 µM
AC50 ([1]; Homo sapiens, read-out: ac50 Mean.Spheroid.Burst.ISI): 29.2 µM
AC50 ([1]; Homo sapiens, read-out: ac50 Mean.Spheroid.Burst.Peak.Firing.Rate): 30 µM
AC50 ([1]; Homo sapiens, read-out: ac50 Mean.Spheroid.Firing.Rate): 29 µM
AC50 ([1]; Homo sapiens, read-out: ac50 Mean.Spheroid.IBI): 45 µM
AC50 ([1]; Homo sapiens, read-out: ac50 Mean.Spheroid.Nonburst.ISI): 45 µM
AC50 ([1]; Homo sapiens, read-out: ac50 Mean.Spheroid.Spikes.per.Burst): 45 µM
AC50 ([1]; Homo sapiens, read-out: ac50 Mean.Spheroid.Spikes.per.Burst.per.Electrode): 29.1 µM
AC50 ([1]; Homo sapiens, read-out: ac50 Spheroid.Burst.Frequency): 45 µM
AC50 ([1]; Homo sapiens, read-out: ac50 Spheroid.Spike.Amplitude.90th.Percentile): 45 µM
EC50 ([1]; Homo sapiens, mean across active AC50 values per chemical, read-out: Mean potency): 36.3 µM
AC50 ([1]; read-out: ac50 Mean.Spheroid.Burst.Peak.Firing.Rate): 29.6 µM
AC50 ([1]; read-out: ac50 Mean.Spheroid.Firing.Rate): 29.3 µM
Percent active ([1]; metrics active out of the total number of metrics screened): 90%
BMD Mean.Spheroid.Burst.Duration [1, 6]: 28 µM
BMD Mean.Spheroid.Burst.Peak.Firing.Rate [1, 6]: 28 µM
BMD Mean.Spheroid.Firing.Rate [1, 6]: 30 µM
BMD Mean.Spheroid.IBI [1, 6]: 31 µM
BMD Mean.Spheroid.Spikes.per.Burst [1, 6]: 40 µM
BMD Mean.Spheroid.Spikes.per.Burst.per.Electrode [1, 6]: 28 µM
BMD Spheroid.Burst.Frequency [1, 6]: 47 µM
BMD Spheroid.Spike.Amplitude.90th.Percentile [1, 6]: 33 µM
ACC Mean.Spheroid.Burst.Duration [1, 7]: 27 µM
ACC Mean.Spheroid.Burst.ISI [1, 7]: 26 µM
ACC Mean.Spheroid.Burst.Peak.Firing.Rate [1, 7]: 28 µM
ACC Mean.Spheroid.Firing.Rate [1, 7]: 31 µM
ACC Mean.Spheroid.IBI [1, 7]: 44 µM
ACC Mean.Spheroid.Nonburst.ISI [1, 7]: 58 µM
ACC Mean.Spheroid.Spikes.per.Burst [1, 7]: 50 µM
ACC Mean.Spheroid.Spikes.per.Burst.per.Electrode [1, 7]: 29 µM
ACC Spheroid.Burst.Frequency [1, 7]: 42 µM
ACC Spheroid.Spike.Amplitude.90th.Percentile [1, 7]: 44 µM
Hits ([1]; total number of active endpoints out of 10 MEA activity metrics, 13-day exposure): 9
Number of active endpoints in the rNFA (2D rat cortical cultures [2]; of 17 MEA endpoints, ref Brown et al. [2016], Carstens et al. [2022], Frank et al. [2017b], Shafer et al. [2019], ToxCast invitrodb (v4.2)): two
AC50 (2D rat cortical cultures [2]; aenm active_electrodes_number, read-out: ac50 CCTE_Shafer_MEA_dev_active_electrodes_number): 15 µM
AC50 (2D rat cortical cultures [2]; aenm bursting_electrodes_number, read-out: ac50 CCTE_Shafer_MEA_dev_bursting_electrodes_number): 9.89 µM
hitc CCTE_Shafer_MEA_dev_active_electrodes_number (2D rat cortical cultures [2]; rNFA mc5 hit call, aenm active_electrodes_number): 1
hitc CCTE_Shafer_MEA_dev_burst_duration_mean (2D rat cortical cultures [2]; rNFA mc5 hit call, aenm burst_duration_mean): 0
hitc CCTE_Shafer_MEA_dev_burst_rate (2D rat cortical cultures [2]; rNFA mc5 hit call, aenm burst_rate): 0
hitc CCTE_Shafer_MEA_dev_bursting_electrodes_number (2D rat cortical cultures [2]; rNFA mc5 hit call, aenm bursting_electrodes_number): 1
hitc CCTE_Shafer_MEA_dev_correlation_coefficient_mean (2D rat cortical cultures [2]; rNFA mc5 hit call, aenm correlation_coefficient_mean): 0
hitc CCTE_Shafer_MEA_dev_firing_rate_mean (2D rat cortical cultures [2]; rNFA mc5 hit call, aenm firing_rate_mean): 0
hitc CCTE_Shafer_MEA_dev_inter_network_spike_interval_mean (2D rat cortical cultures [2]; rNFA mc5 hit call, aenm inter_network_spike_interval_mean): 0
hitc CCTE_Shafer_MEA_dev_interburst_interval_mean (2D rat cortical cultures [2]; rNFA mc5 hit call, aenm interburst_interval_mean): 0
hitc CCTE_Shafer_MEA_dev_mutual_information_norm (2D rat cortical cultures [2]; rNFA mc5 hit call, aenm mutual_information_norm): 0
hitc CCTE_Shafer_MEA_dev_network_spike_duration_std (2D rat cortical cultures [2]; rNFA mc5 hit call, aenm network_spike_duration_std): 0
hitc CCTE_Shafer_MEA_dev_network_spike_number (2D rat cortical cultures [2]; rNFA mc5 hit call, aenm network_spike_number): 0
hitc CCTE_Shafer_MEA_dev_network_spike_peak (2D rat cortical cultures [2]; rNFA mc5 hit call, aenm network_spike_peak): 0
hitc CCTE_Shafer_MEA_dev_per_burst_interspike_interval (2D rat cortical cultures [2]; rNFA mc5 hit call, aenm per_burst_interspike_interval): 0
hitc CCTE_Shafer_MEA_dev_per_burst_spike_percent (2D rat cortical cultures [2]; rNFA mc5 hit call, aenm per_burst_spike_percent): 0
hitc CCTE_Shafer_MEA_dev_per_network_spike_spike_number_mean (2D rat cortical cultures [2]; rNFA mc5 hit call, aenm per_network_spike_spike_number_mean): 0
hitc CCTE_Shafer_MEA_dev_per_network_spike_spike_percent (2D rat cortical cultures [2]; rNFA mc5 hit call, aenm per_network_spike_spike_percent): 0
hitc CCTE_Shafer_MEA_dev_spike_duration_mean (2D rat cortical cultures [2]; rNFA mc5 hit call, aenm spike_duration_mean): 0
hitc CCTE_Shafer_MEA_dev_AB (2D rat cortical cultures [3]): 0
hitc CCTE_Shafer_MEA_dev_LDH (2D rat cortical cultures [4]): 0
